In patent publication US6958321B2, “Isolation, characterization, cloning and use of a mushroom lectin” (The Regents of the University of Michigan, priority 2001, dated 2005):

What was measured:
[1] = system: MOA; experiment: Sugar ligand binding to MOA (hemagglutination inhibition, hapten inhibition of precipitation, calorimetry); set-up: species or system Marasmius oreades; conditions: binding to MOA in solution
Protocol: All three methods gave approximately the same results, with the calorimetric data being the most precise.
Being a blood type B agglutinin, MOA was assayed primarily against D-galactosyl-terminated sugars and oligosaccharides. […] Methyl α-galactopyranoside was similarly very poor. […] While not limited to any particular mechanism, and with the understanding that knowledge of the underlying mechanism is not required for the practice of the invention, it is believed that recognition of the L-fucosyl moiety is the reason for limited agglutination of human O erythrocytes and a weak precipitin curve with blood group H substance.

[2] = biological target: T1, recombinant MOA (rMOA) (Marasmius oreades, UniProt Q8X123); experiment: Isothermal titration calorimetry, recombinant MOA (rMOA); assay type: binding; conditions: read-out: Ka, rMOA (converted)
T1 sequence (Q8X123 1-293): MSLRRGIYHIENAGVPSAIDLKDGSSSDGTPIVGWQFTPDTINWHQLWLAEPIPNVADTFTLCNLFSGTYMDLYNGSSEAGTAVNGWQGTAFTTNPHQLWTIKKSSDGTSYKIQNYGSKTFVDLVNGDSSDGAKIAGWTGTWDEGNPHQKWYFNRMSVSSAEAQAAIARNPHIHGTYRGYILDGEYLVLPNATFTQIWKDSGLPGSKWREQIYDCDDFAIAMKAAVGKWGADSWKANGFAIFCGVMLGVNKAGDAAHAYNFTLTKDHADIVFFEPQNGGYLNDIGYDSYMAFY
Protocol: (§1) As this volume underfills the titration cell, variable volume calculations were applied, using the Bindworks software installed in the instrument. […] Finally, the trisaccharide L-Fucα1,2Ga1β1,4G1c (fucosyllactose), related to the blood group H trisaccbaride, was assayed. […] While not to be limited to any particular mechanism, it is believed that this may be the reason that MOA recognizes and agglutinates human O erythrocytes to a limited extent, and gives a weak precipitin curve with blood group H substance.
Expression and characterization of recombinant MOA: A full-length PCR product incorporating NdeI and EcoRI into its forward and reverse primers, respectively, was cloned into PCR Blunt II using topoisomerase (Invitrogen) and subsequently shuttled into an IPTG inducible pT7 expression vector (MOApT7LO). Recombinant MOA was expressed in a Nova Blue DE3 strain of E. coli. Expressing bacteria were collected by centrifugation and resuspended in a lysis buffer consisting of 50 mM NaH2PO4, 300 mM NaCl, 10 mM imidizole, 10mM 2-mercaptoethanol, 1 mM phenylmethylsulfonyl fluoride, 1% NP-40, and a protease inhibitor cocktail. The extract was twice run through a french press. The insoluble fraction was removed by centrifugation (10,000×g, 15 min).
(§2) Purification of recombinant MOA and native intact MOA-Recombinant MOA was purified from the soluble fraction by absorption on a column of melibiose-Sepharose and elution by lactose. Further purification was carried out on an affinity column of Synsorb B. Except for the diaminopropane elution, all affinity purifications were carried out in PBS, pH 7.2, containing 1.25 mM EDTA. After purification, lectin solutions were dialyzed against distilled water and lyophilized. […] Intact native MOA was prepared with a purification procedure (Example 2) that utilized a protease inhibitor cocktail (product P8215, Sigma, St. Louis, Mo.) which was added at the level of 0.1 ml/100 ml extract buffer (instead of phenylmethylsulfonyl fluoride), all buffers lacked Ca^++ and contained 1.25 mM EDTA, and the initial extraction and ammonium sulfate fractionations were carried out under an atmosphere of argon.
(§3) Binding constants of several relevant oligosaccharides to recombinant and intact native MOA were determined calorimetrically.

[3] = biological target: T2, intact native MOA (nMOA) (Marasmius oreades, UniProt Q8X123); experiment: Isothermal titration calorimetry, intact native MOA (nMOA); assay type: binding; conditions: read-out: Ka, nMOA (converted)
T2 sequence (Q8X123 1-293): T1 sequence (Q8X123 1-293)
Protocol: as §1, §2, §3

[4] = biological target: T3, Marasmius oreades lectin (MOA, cMOA) (Marasmius oreades, UniProt Q8X123); experiment: Isothermal titration calorimetry, MOA of Example 1 (proteolyzed, clipped form, cMOA); assay type: binding; conditions: for Kd / TΔS / −ΔG / −ΔH / Ka / ligand binding: isothermal titration calorimetry; for Ka, cMOA: proteolyzed (clipped) native lectin, Table 6
T3 sequence (Q8X123 1-293): T1 sequence (Q8X123 1-293)

[5] = system: immobilized MOA; experiment: Binding to MOA-Sepharose 4B affinity column; set-up: species or system Marasmius oreades; conditions: washed with PBS, eluted with 20 mM diaminopropane
Text: Further insight into the carbohydrate specificity of MOA was obtained by using immobilized MOA. Immobilization of MOA on a variety of supports is contemplated. In one embodiment, MOA is immobilized on a matrix that can be used in an affinity column (see below). In some embodiments, the matrix comprises Sepharose 4B beads. In some Embodiments, the MOA-conjugated Sepharose 4B beads are packed in a column for binding and affinity isolation and purification studies. Briefly, the MOA-Sepharose column is loaded with glycan, glycoconjugate or serum sample to be tested, then washed with an appropriate buffer (including but not limited to PBS). Bound components are eluted with a suitable elution buffer (including but not limited to 1,3-diaminopropane in NaCl), and the collected fractions are analyzed for the presence of protein or glycan (see Example 6 below). The fractions containing the bound components (eluted as described herein) can be pooled and concentrated.
MOA was immobilized on cyanogen bromide-activated Sepharose 4B as follows. 1.5 g of cyanogen bromide-activated Sepharose 4B was allowed to swell in 100 ml of 1 mM HCl solution for 30 min. The supernatant was removed and the swollen beads (6 ml) were filtered on a sintered funnel, washed several times with 100 ml of 1 mM HCl and finally with 20 ml of 0.1 M sodium bicarbonate buffer, pH 8.3, containing 0.5 M sodium chloride. The beads were quickly transferred to a plastic bottle containing 16.2 mg MOA in the same buffer (10 ml) containing 0.2 M lactose. The plastic bottle was shaken at room temperature for 6 hr and at 4° C. overnight. The beads were filtered on a sintered glass funnel, washed with the coupling buffer, and then shaken in 1 M ethanolamine (12 ml) at room temperature for 2.5 hr to cap all of the unreacted iminocarbonate groups. The beads were filtered, washed alternately with the coupling buffer then sodium acetate buffer (0.1 M, pH 4.0 containing 0.5 M NaCl) four times. A column (1×7 cm) packed with the beads was finally washed with PBS containing 0.04% sodium azide. The beads contained 2.3 mg MOA per ml Sepharose 4B, based on MOA remaining in solution.
In order to assess the binding of various glycans, glycoconjugates and serum samples to MOA-Sepharose, the following general procedure was used. The MOA-Sepharose column was loaded with glycan, glycoconjugate or serum sample (0.6-5 ml) and washed with PBS (15 ml). The bound components were eluted with 20 mM 1,3-diaminopropane in 0.15 M NaCl (15 ml). The fractions collected (1 ml) were neutralized with 1 M phosphoric acid (approximately 16 μl), and analyzed by either absorbance at 280 nm for protein, or by phenol-sulfuric acid assay, as described by Dubois et al. [Anal. Chem. 28: 350 (1956)] for the glycan. The column was finally washed thoroughly with PBS. The fractions containing the bound components were pooled and concentrated by Amicon ultrafiltration (Millipore Corp., Bedford, Mass.) using a membrane (YM10) of 10,000 molecular weight cut-off.

| Molecule | ligand binding [1] | Kd [2] | Kd [4] | TΔS [4] | −ΔG [4] | −ΔH [4] | Ka ([4]; Table 3) | Ka [4] | further results |
| --- | --- | --- | --- | --- | --- | --- | --- | --- | --- |
| CC(=O)N[C@H]1C(O)O[C@H](CO)[C@@H](O[C@@H]2O[C@H](CO)[C@H](O)[C@H](O)[C@H]2O)[C@@H]1O (some centres unmarked) [LacNAc, N-acetyllactosamine] | very poor ligands | 1490 µM | 3.45 mM | 10.9 kcal/mol | 3.33 kcal/mol | 14.22 kcal/mol | 0.290 10^3 M^−1 | – | Kd [3]: 2630 µM; Ka, cMOA [4]: 0.29 10^3 M^−1 |
| C[C@@H]1O[C@@H](O[C@H]2C(O)O[C@H](CO)[C@H](O)[C@@H]2O[C@H]2O[C@H](CO)[C@H](O)[C@H](O)[C@H]2O)[C@@H](O)[C@H](O)[C@@H]1O (some centres unmarked) [B trisaccharide, Galα1,3[Fucα1,2]Gal] | – | 21.7 µM | 0.036 mM | 14.6 kcal/mol | 6.01 kcal/mol | 20.6 kcal/mol | 27.8 10^3 M^−1 | 36000 M⁻¹ | enhancement of affinity to MOA relative to Galα1,3Gal ([4]; addition of an L-fucosyl group): 4 fold; Ka, cMOA [4]: 27.8 10^3 M^−1 |
| CO[C@@H]1O[C@H](CO)[C@@H](O)[C@H](O[C@@H]2O[C@H](CO)[C@H](O)[C@H](O)[C@H]2O)[C@H]1NC(C)=O [LactoNbioseβMe] | – | – | 4.67 mM | 3.49 kcal/mol | 3.15 kcal/mol | 6.64 kcal/mol | 0.214 10^3 M^−1 | – | – |
| CC1OC(OC2C(OC3C(CO)OC(O)C(O)C3O)OC(CO)C(O)C2O)C(O)C(O)C1O [2′ Fucosyllactose, L-Fucα1,2Ga1β1,4G1c] | low but measurable binding | – | 1.83 mM | 6.4 kcal/mol | 3.70 kcal/mol | 10.1 kcal/mol | .548 10^3 M^−1 | 548 M⁻¹ | – |
| OC[C@H]1O[C@H](OCC2O[C@@H](O)[C@H](O)[C@@H](O)[C@@H]2O)[C@H](O)[C@@H](O)[C@H]1O (stereo partly drawn) [melibiose, Ga1α1,6G1c] | very poor ligands | – | – | – | – | – | – | – | – |
| degalactosylated bovine thyroglobulin: α-galactosidase-digested bovine thyroglobulin | – | – | – | – | – | – | – | – | binding to MOA-Sepharose column [5]: passed through the column |
| asialofetuin: asialofetuin, with terminal Galβ1,4GlcNAc residues | – | – | – | – | – | – | – | – | binding to MOA-Sepharose column [5]: passed through the column |
| OC[C@H]1O[C@H](O[C@H]2[C@@H](O)[C@@H](CO)OC(O)[C@@H]2O)[C@H](O)[C@@H](O)[C@H]1O (some centres unmarked) [Galα1,3Gal] | excellent ligand | 37.5 µM | 0.182 mM | 15.0 kcal/mol | 5.05 kcal/mol | 20.1 kcal/mol | 5.48 10^3 M^−1 | 6000 M⁻¹ | Kd [3]: 36.6 µM; affinity constant relative to that for Meα-Gal [4]: 44 fold; ligand binding ([4]; Table 3): excellent ligand; Ka, cMOA [4]: 5.48 10^3 M^−1 |
| OC[C@H]1O[C@@H](O[C@H]2[C@H](O)[C@@H](O)C(O)O[C@@H]2CO)[C@H](O)[C@@H](O)[C@H]1O (some centres unmarked) [Lactose] | very poor ligands | – | 5.08 mM | 5.76 kcal/mol | 3.1 kcal/mol | 8.86 kcal/mol | 0.197 10^3 M^−1 | 185 M⁻¹ | – |
| OC[C@H]1O[C@H](O[C@H]2[C@@H](O)[C@@H](CO)O[C@@H](O[C@H]3[C@H](O)[C@@H](O)C(O)O[C@@H]3CO)[C@@H]2O)[C@H](O)[C@@H](O)[C@H]1O (some centres unmarked) [Galα1,3Galβ1,4Glc] | – | 75.8 µM | – | – | – | – | – | – | Kd [3]: 59.9 µM |
| Ga1α1,6Ga1 | bound poorly or not at all | – | – | – | – | – | – | – | ligand binding ([4]; Table 3): bound poorly or not at all |
| OC[C@H]1O[C@@H](OC[C@H]2OC(O)[C@H](O)[C@@H](O)[C@H]2O)[C@H](O)[C@@H](O)[C@H]1O (some centres unmarked) [Galβ1,6Gal] | – | – | – | 2.84 kcal/mol | 3.28 kcal/mol | 6.12 kcal/mol | – | – | – |
| OCC1OC(OC2C(O)OC(CO)C(O)C2O)C(O)C(O)C1O (stereo not drawn) [Galβ1,2Gal, Ga1α1,2Ga1] | bound poorly or not at all | – | > 10 mM | – | – | – | <0.1 10^3 M^−1 | – | ligand binding ([4]; Table 3): bound poorly or not at all |
| CC(=O)N[C@H]1C(O)O[C@H](CO)[C@@H](O[C@@H]2O[C@H](CO)[C@H](O)[C@H](O[C@H]3O[C@H](CO)[C@H](O)[C@H](O)[C@H]3O)[C@H]2O)[C@@H]1O (some centres unmarked) [Linear B2 trisacc., Galα1,3Galβ1,4GlcNAc] | – | 33 µM | 0.103 mM | 15.2 kcal/mol | 5.39 kcal/mol | 20.6 kcal/mol | 9.753 10^3 M^−1 | 9700 M⁻¹ | Kd [3]: 25.4 µM; increase of binding relative to Galα1,3Gal ([4]; addition of a GlcNAc group to the reducing end): approximately 50%; Ka, cMOA [4]: 9.75 10^3 M^−1 |
| OCC1OC(OC2C(CO)OC(O)C(O)C2O)C(O)C(O)C1O (stereo not drawn) [Galβ1,4Gal, G1α1,4Ga1] | bound poorly or not at all | – | > 10 mM | – | – | – | <0.1 10^3 M^−1 | – | ligand binding ([4]; Table 3): bound poorly or not at all |
| CO[C@H]1O[C@H](CO)[C@H](O)[C@H](O)[C@H]1O [Me-α-Gal, Methyl α-galactopyranoside] | very poor | – | 8.13 mM | 3.06 kcal/mol | 2.82 kcal/mol | 5.88 kcal/mol | 0.123 10^3 M^−1 | – | – |
